Reference: the NIST ThermoML archive (doi:10.1016/j.tca.2016.01.016)
Values joined by “and” are separate entries in the source; they are usually repeats but may differ in a detail not shown here. Equal entries are not always repeated.

Assay: molar heat capacity at constant pressure
Conditions: 101.33 kPa, Crystal, Small sample (50 mg) DSC

O=P([O-])([O-])[O-].[Dy+3] [dysprosium(III) phosphate]
Conditions | molar heat capacity at constant pressure
348.15 K | 117.5 J/K/mol and 118.3 J/K/mol
353.15 K | 119.1 J/K/mol and 119.4 J/K/mol
358.15 K | 120.4 J/K/mol and 120.4 J/K/mol
363.15 K | 121.5 J/K/mol and 121.3 J/K/mol
368.15 K | 122.5 J/K/mol and 122.3 J/K/mol
373.15 K | 123.3 J/K/mol and 123.2 J/K/mol
378.15 K | 124.1 J/K/mol and 124.1 J/K/mol
383.15 K | 124.9 J/K/mol and 124.9 J/K/mol
388.15 K | 125.7 J/K/mol and 125.7 J/K/mol
393.15 K | 126.4 J/K/mol and 126.5 J/K/mol
398.15 K | 127.3 J/K/mol and 127.3 J/K/mol
403.15 K | 128.1 J/K/mol and 128 J/K/mol
408.15 K | 128.9 J/K/mol and 128.7 J/K/mol
413.15 K | 129.6 J/K/mol and 129.4 J/K/mol
418.15 K | 130.4 J/K/mol and 130.1 J/K/mol
423.15 K | 131 J/K/mol and 130.8 J/K/mol
428.15 K | 131.7 J/K/mol and 131.4 J/K/mol
433.15 K | 132.3 J/K/mol and 132 J/K/mol
438.15 K | 132.8 J/K/mol and 132.6 J/K/mol
443.15 K | 133.4 J/K/mol and 133.2 J/K/mol
448.15 K | 133.9 J/K/mol and 133.8 J/K/mol
453.15 K | 134.5 J/K/mol and 134.3 J/K/mol
458.15 K | 135 J/K/mol and 134.9 J/K/mol
463.15 K | 135.5 J/K/mol and 135.4 J/K/mol
468.15 K | 136.1 J/K/mol and 135.9 J/K/mol
473.15 K | 136.6 J/K/mol and 136.4 J/K/mol
478.15 K | 137 J/K/mol and 136.9 J/K/mol
483.15 K | 137.4 J/K/mol and 137.4 J/K/mol
488.15 K | 137.9 J/K/mol and 137.8 J/K/mol
493.15 K | 138.3 J/K/mol and 138.3 J/K/mol
498.15 K | 138.7 J/K/mol and 138.7 J/K/mol
503.15 K | 139.1 J/K/mol and 139.1 J/K/mol
508.15 K | 139.5 J/K/mol and 139.5 J/K/mol
513.15 K | 139.9 J/K/mol and 140 J/K/mol
518.15 K | 140.3 J/K/mol and 140.3 J/K/mol
523.15 K | 140.7 J/K/mol and 140.7 J/K/mol
528.15 K | 141 J/K/mol and 141.1 J/K/mol
533.15 K | 141.3 J/K/mol and 141.5 J/K/mol
538.15 K | 141.6 J/K/mol and 141.9 J/K/mol
543.15 K | 142 J/K/mol and 142.2 J/K/mol
548.15 K | 142.4 J/K/mol and 142.6 J/K/mol
553.15 K | 142.7 J/K/mol and 142.9 J/K/mol
558.15 K | 143 J/K/mol and 143.2 J/K/mol
563.15 K | 143.4 J/K/mol and 143.6 J/K/mol
568.15 K | 143.7 J/K/mol and 143.9 J/K/mol
573.15 K | 143.9 J/K/mol and 144.2 J/K/mol
578.15 K | 144.3 J/K/mol and 144.5 J/K/mol
583.15 K | 144.6 J/K/mol and 144.8 J/K/mol
588.15 K | 144.8 J/K/mol and 145.1 J/K/mol
593.15 K | 145.1 J/K/mol and 145.4 J/K/mol
598.15 K | 145.3 J/K/mol and 145.7 J/K/mol
603.15 K | 145.6 J/K/mol and 145.9 J/K/mol
608.15 K | 145.9 J/K/mol and 146.2 J/K/mol
613.15 K | 146.1 J/K/mol and 146.5 J/K/mol
618.15 K | 146.4 J/K/mol and 146.8 J/K/mol
623.15 K | 146.7 J/K/mol and 147 J/K/mol
628.15 K | 147 J/K/mol and 147.3 J/K/mol
633.15 K | 147.3 J/K/mol and 147.5 J/K/mol
638.15 K | 147.5 J/K/mol and 147.8 J/K/mol
643.15 K | 147.8 J/K/mol and 148 J/K/mol
648.15 K | 148 J/K/mol and 148.2 J/K/mol
653.15 K | 148.2 J/K/mol and 148.5 J/K/mol
658.15 K | 148.5 J/K/mol and 148.7 J/K/mol
663.15 K | 148.8 J/K/mol and 148.9 J/K/mol
668.15 K | 149.1 J/K/mol and 149.1 J/K/mol
673.15 K | 149.3 J/K/mol and 149.3 J/K/mol
678.15 K | 149.6 J/K/mol and 149.6 J/K/mol
683.15 K | 149.9 J/K/mol and 149.8 J/K/mol
688.15 K | 150.1 J/K/mol and 150 J/K/mol
693.15 K | 150.4 J/K/mol and 150.2 J/K/mol
698.15 K | 150.7 J/K/mol and 150.4 J/K/mol
703.15 K | 150.9 J/K/mol and 150.6 J/K/mol
708.15 K | 151.1 J/K/mol and 150.8 J/K/mol
713.15 K | 151.4 J/K/mol and 151 J/K/mol
718.15 K | 151.6 J/K/mol and 151.1 J/K/mol
723.15 K | 151.8 J/K/mol and 151.3 J/K/mol
728.15 K | 152 J/K/mol and 151.5 J/K/mol
733.15 K | 152.1 J/K/mol and 151.7 J/K/mol
738.15 K | 152.3 J/K/mol and 151.9 J/K/mol
743.15 K | 152.5 J/K/mol and 152 J/K/mol
748.15 K | 152.7 J/K/mol and 152.2 J/K/mol
753.15 K | 152.9 J/K/mol and 152.4 J/K/mol
758.15 K | 152.9 J/K/mol and 152.5 J/K/mol
763.15 K | 153.1 J/K/mol and 152.7 J/K/mol
768.15 K | 153.3 J/K/mol and 152.9 J/K/mol
773.15 K | 153.4 J/K/mol and 153 J/K/mol
778.15 K | 153.4 J/K/mol and 153.2 J/K/mol
783.15 K | 153.6 J/K/mol and 153.3 J/K/mol
788.15 K | 153.5 J/K/mol
793.15 K | 153.7 J/K/mol and 153.6 J/K/mol
798.15 K | 153.8 J/K/mol
803.15 K | 154 J/K/mol and 153.9 J/K/mol
808.15 K | 154.1 J/K/mol
813.15 K | 154.2 J/K/mol
818.15 K | 154.3 J/K/mol and 154.4 J/K/mol
823.15 K | 154.4 J/K/mol and 154.5 J/K/mol
828.15 K | 154.5 J/K/mol and 154.6 J/K/mol
833.15 K | 154.5 J/K/mol and 154.8 J/K/mol
838.15 K | 154.6 J/K/mol and 154.9 J/K/mol
843.15 K | 154.8 J/K/mol and 155 J/K/mol
848.15 K | 154.9 J/K/mol and 155.2 J/K/mol
853.15 K | 154.9 J/K/mol and 155.3 J/K/mol
858.15 K | 155 J/K/mol and 155.4 J/K/mol
863.15 K | 155.1 J/K/mol and 155.6 J/K/mol
868.15 K | 155.2 J/K/mol and 155.7 J/K/mol
